# System: subjects with moderate-to-severe plaque psoriasis
# Experiment: IGA score, Example 1
# Assay type: in vivo, human
# Conditions: Week 16
# Experimental: The Investigator's Global Assessment (IGA) documents the investigator's assessment of the participant's psoriasis at a given time point. Overall lesions are graded for induration, erythema, and scaling. The participant's psoriasis is assessed as cleared (0), minimal (1), mild (2), moderate (3), or severe (4).
# This was a randomized, double-blind, placebo-controlled, dose-ranging, parallel group, multicenter, interventional study in subjects with moderate-to-severe plaque psoriasis. A target of 240 subjects were enrolled in this study with 40 subjects planned per intervention group.
# Clinician-reported outcomes including Psoriasis Area and Severity Index (PASI), Body Surface Area (BSA), Investigator's Global Assessment (IGA), Nail Psoriasis Area and Severity Index (NAPSI), Fingernail Physician's Global Assessment (f-PGA), Static Physician's Global Assessment of Genitalia (s-PGA-G), Physician's Global Assessment of Hands and/or Feet (hf-PGA), and Scalp Specific Investigator Global Assessment (ss-IGA) were obtained at Week 0, 8, and 16. PASI and IGA were also obtained at Weeks 1, 2, 4, and 12, and at Week 20, four weeks after the administration of the tablets has stopped.
# [1] = 25 mg BID, peak plasma conc. <Q1, N=2
# [2] = 25 mg BID, peak plasma conc. Q1 to <Q2, N=2
# [3] = 25 mg BID, peak plasma conc. Q2 to <Q3, N=2
# [4] = 25 mg BID, peak plasma conc. ≥Q3, N=2
# [5] = 25 mg BID, trough plasma conc <Q1
# [6] = 25 mg BID, trough plasma conc Q1 to <Q2
# [7] = 25 mg BID, trough plasma conc Q2 to <Q3
# [8] = 25 mg BID, trough plasma conc ≥Q3
# [9] = 25 mg QD, peak plasma conc. <Q1, N=2
# [10] = 25 mg QD, peak plasma conc. Q1 to <Q2, N=2
# [11] = 25 mg QD, peak plasma conc. Q2 to <Q3, N=2
# [12] = 25 mg QD, peak plasma conc. ≥Q3, N=2
# [13] = 25 mg QD, trough plasma conc <Q1
# [14] = 25 mg QD, trough plasma conc Q1 to <Q2
# [15] = 25 mg QD, trough plasma conc Q2 to <Q3
# [16] = 25 mg QD, trough plasma conc ≥Q3
# [17] = 50 mg QD, peak plasma conc. <Q1, N=2
# [18] = 50 mg QD, peak plasma conc. Q1 to <Q2, N=2
# [19] = 50 mg QD, peak plasma conc. Q2 to <Q3, N=2
# [20] = 50 mg QD, peak plasma conc. ≥Q3, N=2
# [21] = 50 mg QD, trough plasma conc <Q1
# [22] = 50 mg QD, trough plasma conc Q1 to <Q2
# [23] = 50 mg QD, trough plasma conc Q2 to <Q3
# [24] = 50 mg QD, trough plasma conc ≥Q3
# [25] = 100 mg BID, peak plasma conc. <Q1, N=2
# [26] = 100 mg BID, peak plasma conc. Q1 to <Q2, N=3
# [27] = 100 mg BID, peak plasma conc. Q2 to <Q3, N=2
# [28] = 100 mg BID, peak plasma conc. ≥Q3, N=3
# [29] = 100 mg BID, trough plasma conc <Q1
structure (smiles),measurement,setting,value
"CC(=O)NCCCC[C@@H]1NC(=O)[C@H](Cc2c[nH]c3c(C)cccc23)NC(=O)[C@H]([C@@H](C)O)NC(=O)[C@H](CC(N)=O)NC(=O)[C@@H](NC(C)=O)C(C)(C)SSC(C)(C)[C@@H](C(=O)N[C@@H](Cc2ccc(OCCN)cc2)C(=O)N[C@@H](Cc2ccc3ccccc3c2)C(=O)NC2(C(=O)N[C@@H](CCC(=O)O)C(=O)N[C@@H](CC(N)=O)C(=O)N[C@@H](Cc3cccnc3)C(=O)N(C)CC(N)=O)CCOCC2)NC1=O [IL-23 receptor antagonist peptide, Ac-[Pen]*-N-T-[W(7-Me)]-[Lys(Ac)]-[Pen]*-Phe[4-(2-aminoethoxy)]-[2-Nal]-[THP]-E-N-[3-Pal]-Sarc-NH2 (*[Pen]-[Pen]* formdisulfidebond)]",IGA 0 or 1 treatment difference vs placebo,25 mg BID,"39.5% (21.7%,"
same,IGA 0 treatment difference vs placebo,25 mg BID,"14.6% (4.0%,"
same,Subjects achieving IGA Score = 0,25 mg BID,(14.6%)
same,Subjects achieving IGA Score = 0 or 1,25 mg BID,(51.2%)
same,"IGA score 0, %","25 mg BID, N=41",(14.6) %
same,"IGA score 0/1, %","25 mg BID, N=41",(51.2) %
same,"IGA Score = 0, n subjects",[1],0
same,"IGA Score = 0 or 1, n subjects",[1],0
same,"IGA Score = 0, n subjects",[2],0
same,"IGA Score = 0 or 1, % subjects",[2],(50.0%)
same,"IGA Score = 0 or 1, n subjects",[2],1
same,"IGA Score = 0, n subjects",[3],0
same,"IGA Score = 0 or 1, % subjects",[3],(50.0%)
same,"IGA Score = 0 or 1, n subjects",[3],1
same,"IGA Score = 0, % subjects",[4],(50.0%)
same,"IGA Score = 0, n subjects",[4],1
same,"IGA Score = 0 or 1, % subjects",[4],(50.0%)
same,"IGA Score = 0 or 1, n subjects",[4],1
same,"IGA Score = 0, subjects",[5],2 (33.3%)
same,"IGA Score = 0 or 1, subjects",[5],4 (66.7%)
same,"IGA Score = 0, subjects",[6],1 (16.7%)
same,"IGA Score = 0 or 1, subjects",[6],1 (16.7%)
same,"IGA Score = 0, subjects",[7],0
same,"IGA Score = 0 or 1, subjects",[7],4 (66.7%)
same,"IGA Score = 0, subjects",[8],2 (33.3%)
same,"IGA Score = 0 or 1, subjects",[8],100.0%
same,IGA 0 or 1 treatment difference vs placebo,25 mg QD,"27.9% (10.5%,"
same,IGA 0 treatment difference vs placebo,25 mg QD,"16.3% (5.3%,"
same,Subjects achieving IGA Score = 0,25 mg QD,(16.3%)
same,Subjects achieving IGA Score = 0 or 1,25 mg QD,(39.5%)
same,"IGA score 0, %","25 mg QD, N=43",(16.3) %
same,"IGA score 0/1, %","25 mg QD, N=43",(39.5) %
same,"IGA Score = 0, n subjects",[9],0
same,"IGA Score = 0 or 1, % subjects",[9],(50.0%)
same,"IGA Score = 0 or 1, n subjects",[9],1
same,"IGA Score = 0, n subjects",[10],0
same,"IGA Score = 0 or 1, % subjects",[10],(50.0%)
same,"IGA Score = 0 or 1, n subjects",[10],1
same,"IGA Score = 0, % subjects",[11],(50.0%)
same,"IGA Score = 0, n subjects",[11],1
same,"IGA Score = 0 or 1, % subjects",[11],(50.0%)
same,"IGA Score = 0 or 1, n subjects",[11],1
same,"IGA Score = 0, n subjects",[12],0
same,"IGA Score = 0 or 1, % subjects",[12],(50.0%)
same,"IGA Score = 0 or 1, n subjects",[12],1
same,"IGA Score = 0, subjects",[13],1 (20.0%)
same,"IGA Score = 0 or 1, subjects",[13],2 (40.0%)
same,"IGA Score = 0, subjects",[14],2 (33.3%)
same,"IGA Score = 0 or 1, subjects",[14],3 (50.0%)
same,"IGA Score = 0, subjects",[15],0
same,"IGA Score = 0 or 1, subjects",[15],1 (20.0%)
same,"IGA Score = 0, subjects",[16],1 (16.7%)
same,"IGA Score = 0 or 1, subjects",[16],4 (66.7%)
same,IGA 0 or 1 treatment difference vs placebo,50 mg QD,"46.5% (29.1%,"
same,IGA 0 treatment difference vs placebo,50 mg QD,"34.9% (20.8%,"
same,Subjects achieving IGA Score = 0,50 mg QD,15 (34.9%)
same,Subjects achieving IGA Score = 0 or 1,50 mg QD,25 (58.1%)
same,"IGA score 0, %","50 mg QD, N=43",34.9%
same,"IGA score 0/1, %","50 mg QD, N=43",58.1%
same,"IGA Score = 0, n subjects",[17],0
same,"IGA Score = 0 or 1, n subjects",[17],0
same,"IGA Score = 0, % subjects",[18],(100.0%)
same,"IGA Score = 0, n subjects",[18],2
same,"IGA Score = 0 or 1, % subjects",[18],(100.0%)
same,"IGA Score = 0 or 1, n subjects",[18],2
same,"IGA Score = 0, n subjects",[19],0
same,"IGA Score = 0 or 1, % subjects",[19],(100.0%)
same,"IGA Score = 0 or 1, n subjects",[19],2
same,"IGA Score = 0, n subjects",[20],0
same,"IGA Score = 0 or 1, % subjects",[20],(100.0%)
same,"IGA Score = 0 or 1, n subjects",[20],2
same,"IGA Score = 0, subjects",[21],1 (20.0%)
same,"IGA Score = 0 or 1, subjects",[21],2 (40.0%)
same,"IGA Score = 0, subjects",[22],3 (60.0%)
same,"IGA Score = 0 or 1, subjects",[22],4 (80.0%)
same,"IGA Score = 0, subjects",[23],2 (40.0%)
same,"IGA Score = 0 or 1, subjects",[23],2 (40.0%)
same,"IGA Score = 0, subjects",[24],2 (40.0%)
same,"IGA Score = 0 or 1, subjects",[24],3 (60.0%)
same,IGA 0 or 1 treatment difference vs placebo,100 mg BID,"52.8% (36.0%,"
same,IGA 0 treatment difference vs placebo,100 mg BID,"45.3% (30.6%,"
same,Subjects achieving IGA Score = 0,100 mg BID,(45.2%)
same,Subjects achieving IGA Score = 0 or 1,100 mg BID,(64.3%)
same,"IGA score 0, %","100 mg BID, N=42",45.2%
same,"IGA score 0/1, %","100 mg BID, N=42",64.3%
same,"IGA Score = 0, % subjects",[25],(50.0%)
same,"IGA Score = 0, n subjects",[25],1
same,"IGA Score = 0 or 1, % subjects",[25],(100.0%)
same,"IGA Score = 0 or 1, n subjects",[25],2
same,"IGA Score = 0, % subjects",[26],(66.7%)
same,"IGA Score = 0, n subjects",[26],2
same,"IGA Score = 0 or 1, % subjects",[26],(66.7%)
same,"IGA Score = 0 or 1, n subjects",[26],2
same,"IGA Score = 0, % subjects",[27],(50.0%)
same,"IGA Score = 0, n subjects",[27],1
same,"IGA Score = 0 or 1, % subjects",[27],(50.0%)
same,"IGA Score = 0 or 1, n subjects",[27],1
same,"IGA Score = 0, % subjects",[28],(66.7%)
same,"IGA Score = 0, n subjects",[28],2
same,"IGA Score = 0 or 1, % subjects",[28],(100.0%)
same,"IGA Score = 0 or 1, n subjects",[28],3
same,"IGA Score = 0, subjects",[29],1 (25.0%)
same,"IGA Score = 0 or 1, subjects",[29],3 (75.0%)
same,"IGA Score = 0, subjects","100 mg BID, trough plasma conc Q1 to <Q2",2 (40.0%)

# — patent publication US20260232767A1, “INTERLEUKIN-23 RECEPTOR ANTAGONIST PEPTIDES FOR USE IN THE TREATMENT OF PSORIASIS” (Janssen Pharmaceutica NV, priority 2023, published 2026)
